# Test results published in patent US7833983B2, “Analytical method and kit thereof” (Phadia, AB, priority 2003, dated 2010).
# Values joined by “and” are separate entries in the source; they are usually repeats but may differ in a detail not shown here. Identical values can stand only once. Non-standard residues stand in square brackets, D forms with d. No end group written: not given here. Arg(Me2s) = CN=C(NC)NCCC[C@H](N)C(=O)O
# Columns and labels:
# [1] = test system: anti-Sm antibodies; assay: Epitope-mapping with immobilized oligopeptides (peptide arrays) probed with anti-Sm sera; assay type: binding, human; details: for number of anti-Sm sera recognizing the peptide: panel of five anti-Sm sera (#36, #37, #31, #84, #Sm), serum 1:100, ECL detection
# Excerpt: The published sequences of SmD1, P13641, (Rokeach et al., 1988) and SmD3, P43331, (Lehmeier et al., 1994) were used to synthesize overlapping 15 mer peptides with a pipetting robot according to the protocol described by Gausepohl and Behn (2002). The C-terminal extensions of both polypeptides were synthesized with an offset of 2 amino acids (13 amino acids overlap). Each arginine containing peptide was synthesized as three variants, with natural arginine, with sDMA or with asymmetrical dimethylarginine (asDMA) at the respective positions. Later on, a highly reactive peptide of SmD3 was synthesized with certain combinations of natural arginine and sDMA. Following completion of the peptide synthesis non-specific binding sites were blocked by over-night incubation of the membranes in blocking buffer (BB) at room temperature (RT). After one washing step membranes were incubated with serum samples at a dilution of 1:100 in BB for 2 h at RT. Unbound antibodies were removed by three washing steps. For detection peroxidase conjugated goat-anti-human IgG antibody was diluted 1:5000 in BB and incubated for 75 min (RT). Superfluous secondary antibodies were removed by three washing steps. Finally, bound antibodies were visualized using the enhanced chemoluminiscence (ECL) detection-system.
# Epitope fine-mapping of the C-terminal extensions of SmD1 and D3. To evaluate the effect of arginine-dimethylation on the antigenicity of SmD1 and SmD3 and to map relevant epitopes on both polypeptides a panel of anti-Sm sera was tested with peptide arrays (15 mer, 2 offset) covering the C-terminal region of SmD1 (P13641) and SmD3 (P43331).
# [2] = test system: anti-Sm antibodies; assay: Correlation study: anti-S33 ELISA versus commercially available anti-Sm antibody tests; assay type: binding, human; details: for Reactivity of control serum: suggested cut-off 13
# Description: Randomly selected SLE sera (n=50) and various controls (n=100) were tested using the commercially available anti-Sm antibody tests from different suppliers (Sm test A—Sm Test D) and the results were compared to the findings of the anti-S33 ELISA test.
# [3] = test system: anti-centromere antibodies (ACA; serum CEN); assay: Epitope-mapping with immobilized oligopeptides (peptide arrays) probed with control sera (e.g. CEN); assay type: binding, human; details: serum 1:100
# Excerpt: (§1) Sera (n=628) were collected from patients suffering from systemic lupus erytlhrematosus (SLE; n=176), rheumatoid arthritis (RA, n=86), Sjögren syndrome (SS, n=24); mixed connective tissue disease (MCTD, n=26), scleroderma (SSc, n=26) and polymyositis/dermatomyositis (PM/DM, n=13). All patients were classified according to the ACR-criteria for each disease (Tan et al., 1982; Arnett et al., 1988). To further assess the assay specificity, we analyzed a group of sera from patients with infection diseases (n=77) including hepatitis-C (HCV; n=30), cytomegalo (CMV; n=22) and Epstein-Barr Virus (EBV; n=25) as well as from 192 healthy blood donors. All sera were stored at −80° C. until use. For epitope-mapping a panel of five sera containing anti-Sm antibodies was used. As negative controls autoimmune sera with other antibody specificities than anti-Sm were selected.
# The published sequences of SmD1, P13641, (Rokeach et al., 1988) and SmD3, P43331, (Lehmeier et al., 1994) were used to synthesize overlapping 15 mer peptides with a pipetting robot according to the protocol described by Gausepohl and Behn (2002). The C-terminal extensions of both polypeptides were synthesized with an offset of 2 amino acids (13 amino acids overlap). […]
# [4] = test system: anti-S33 antibodies; assay: S33-peptide ELISA (Varelisa protocol) with patient and control sera; assay type: binding, human
# Excerpt: as §1
# Preparation of ELISA-plates. The lyophilized S33 peptide was used to prepare a stock solution of 10 μg/μl, which was stored in aliquots at −20° C. until use. Binding of the peptide to ELISA plates was carried out using 2.5 μg/ml of the peptide in coating buffer in a final volume of 120 μl per well. The coating procedure was carried out at 15° C. for 20 h. Unspecific binding sites were blocked with blocking solution. After discarding the blocking solution solid phases were dried at 37° C. for 2 h and sealed.
# The assay was performed according to the general protocol of the Varelisa® system (Pharmacia Diagnostics, Freiburg). […] The cut-off was technically set to 13 U/ml after ROC-analysis. PPVs and NPVs were calculated at different cut-off values. […]
# A 15 amino acid soluble peptide displaying highest sensitivity and specificity in the SPOT-assay (^108AARGsdRGRGMGRGNIF^122) (SEQ ID NO: 1) was synthesized for technical reasons with an additional Cys at the C-terminus. This peptide was subsequently used to develop an ELISA system based on the general protocol of the Varelisa® tests (Pharmacia, Freiburg, Germany).
# [5] = pI of the peptide; assay type: physicochemical
# [6] = test system: Lupus-prone mice; details: injection; peptide fused to a carrier protein; Riemekasten et al., 2001; cited from earlier work
# [7] = Rheumatic diseases (181), cut-off 13 U/ml
# [8] = randomly selected SLE sera (n = 101)
substance,measurement,setting,value
"AARG sdR GRGMGRGNIF (AARG[Arg(Me2s)]GRGMGRGNIF) [S33, SmD3 aa 108-122 mimotope peptide with a single symmetrical dimethylarginine at position 112; ELISA version with additional C-terminal Cys]",number of anti-Sm sera recognizing the peptide,[1],all of the five
same,% of SLE sera positive,[2]; 50 randomly selected SLE sera,12%
same,number of SLE sera positive,[2]; 50 randomly selected SLE sera,6
same,% of controls positive,[2]; 100 controls,0%
same,number of controls positive,[2]; 100 controls,none
same,Reactivity of control serum,"[2]; serum No. 105, ID 25516, MCTD",3.0 U/ml
same,Reactivity of control serum,"[2]; serum No. 107, ID 25518, MCTD",1.0 U/ml
same,Reactivity of control serum,"[2]; serum No. 108, ID 25519, MCTD",0.0 U/ml
same,Reactivity of control serum,"[2]; serum No. 110, ID 25521, MCTD",0.5 U/ml
same,Reactivity of control serum,"[2]; serum No. 112, ID 25523, MCTD",0.0 U/ml
same,Reactivity of control serum,"[2]; serum No. 121, ID 25532, MCTD",2.6 U/ml
same,Reactivity of control serum,"[2]; serum No. 123, ID 25534, MCTD",1.1 U/ml
same,Reactivity of control serum,"[2]; serum No. 126, ID 25537, MCTD",3.2 U/ml
same,Reactivity of control serum,"[2]; serum No. 128, ID 25539, MCTD",0.7 U/ml
same,Reactivity of control serum,"[2]; serum No. 129, ID 25540, MCTD",4.1 U/ml
same,Reactivity of control serum,"[2]; serum No. 132, ID 25543, MCTD",2.4 U/ml
same,Reactivity of control serum,"[2]; serum No. 133, ID 25544, MCTD, SLE",9.9 U/ml
same,Reactivity of control serum,"[2]; serum No. 137, ID 25448, SSc",2.2 U/ml
same,Reactivity of control serum,"[2]; serum No. 145, ID 25456, MCTD",1.1 U/ml
same,antibody binding of control sera,[3],not with the controls
same,Mean value,[4]; CMV (22),0.8 U/ml
same,Top value,[4]; CMV (22),3.2 U/ml
same,No. of anti-S33-positive sera,"[4]; CMV (22), cut-off 13 U/ml",0
same,Mean value,[4]; EBV (25),0.78 U/ml
same,Top value,[4]; EBV (25),3.3 U/ml
same,Mean value,[4]; HCV (30),0.42 U/ml
same,Top value,[4]; HCV (30),1.1 U/ml
same,No. of anti-S33-positive sera,"[4]; HCV (30), cut-off 13 U/ml",0
same,Mean value,[4]; Healthy individuals (192),2.2 U/ml and 2.21 U/ml
same,Top value,[4]; Healthy individuals (192),11.5 U/ml
same,No. of anti-S33-positive sera,"[4]; Healthy individuals (192), cut-off 13 U/ml",0
same,Mean value,[4]; Infectious diseases (77),0.67 U/ml
same,Top value,[4]; Infectious diseases (77),3.3 U/ml
same,No. of anti-S33-positive sera,"[4]; Infectious diseases (77), cut-off 13 U/ml",0
same,Mean value,[4]; MCTD (26),3.1 U/ml
same,Top value,[4]; MCTD (26),12.8 U/ml
same,No. of anti-S33-positive sera,"[4]; MCTD (26), cut-off 13 U/ml",0
same,Mean value,[4]; PM/DM (13),2.8 U/ml
same,Top value,[4]; PM/DM (13),9.6 U/ml
same,No. of anti-S33-positive sera,"[4]; PM/DM (13), cut-off 13 U/ml",0
same,Mean value,[4]; RA (86),1.6 U/ml
same,Top value,[4]; RA (86),24.6 U/ml
same,% of anti-S33-positive sera,"[4]; RA (86), cut-off 13 U/ml",(1.2) %
same,No. of anti-S33-positive sera,"[4]; RA (86), cut-off 13 U/ml",1
same,Mean value,[4]; Rheumatic diseases (181),2.2 U/ml
same,Top value,[4]; Rheumatic diseases (181),24.6 U/ml
same,% of anti-S33-positive sera,[4]; [7],(0.6) %
same,No. of anti-S33-positive sera,[4]; [7],1
same,Mean value,[4]; SLE (n = 176),43 U/ml and 43.0 U/ml
same,No. of anti-S33-positive sera,"[4]; SLE (n = 176), cut-off 13 U/ml",28 and 15
same,anti-S33 peptide reactivity,"[4]; SLE patient #89, anti-SmD negative",15.4 units
same,anti-S33 peptide reactivity,"[4]; SLE patient #92, anti-SmD negative",21.3 units
same,anti-S33 peptide reactivity,"[4]; SLE patient #9811, anti-SmD negative",13.9 units
same,anti-S33 peptide reactivity,"[4]; SLE patient #20627, anti-SmD negative",41.3 units
same,immunoresponse to the new Sm antigen (S33),"[4]; SLE patient, beginning of the 18 month follow-up study, inactive phase of disease",337.5 U/ml
same,Mean value,[4]; SSc (26),2.4 U/ml
same,Top value,[4]; SSc (26),4.3 U/ml
same,No. of anti-S33-positive sera,"[4]; SSc (26), cut-off 13 U/ml",0
same,reactivity range,[4]; blood donors,0.4-11.5 U/ml
same,% of control sera tested positive,"[4]; controls (n=449), cut-off 13 U/ml",0.2%
same,Mean value,[4]; pSS (24),1.9 U/ml
same,Top value,[4]; pSS (24),3.9 U/ml
same,No. of anti-S33-positive sera,"[4]; pSS (24), cut-off 13 U/ml",0
same,S33+ among sera with Aab to La (%),[4]; [8],18.2%
same,S33+ among sera with Aab to La (number),[4]; [8],4/22
same,S33+ among sera with Aab to Ro-52 (%),[4]; [8],22.7%
same,S33+ among sera with Aab to Ro-52 (number),[4]; [8],5/22
same,S33+ among sera with Aab to Ro-60 (%),[4]; [8],25%
same,S33+ among sera with Aab to Ro-60 (number),[4]; [8],12/48
same,S33+ among sera with Aab to SmBB′ (%),[4]; [8],50%
same,S33+ among sera with Aab to SmBB′ (number),[4]; [8],11/22
same,S33+ among sera with Aab to SmD (%),[4]; [8],68.8%
same,S33+ among sera with Aab to SmD (number),[4]; [8],11/16
same,S33+ among sera with Aab to U1-68 kD (%),[4]; [8],50%
same,S33+ among sera with Aab to U1-A (%),[4]; [8],48%
same,S33+ among sera with Aab to U1-A (number),[4]; [8],12/25
same,S33+ among sera with Aab to U1-C (%),[4]; [8],42.3%
same,S33+ among sera with Aab to U1-C (number),[4]; [8],11/26
same,S33+ among sera with Aab to dsDNA (%),[4]; [8],25.5%
same,S33+ among sera with Aab to dsDNA (number),[4]; [8],13/51
same,S33+ among sera with Aab to histone (%),[4]; [8],26.3%
same,S33+ among sera with Aab to histone (number),[4]; [8],10/38
same,S33+ among sera with Aab to β2-Glycoprotein (%),[4]; [8],25%
same,S33+ among sera with Aab to β2-Glycoprotein (number),[4]; [8],4/16
same,pI,[5],> 12.88
"AAsdRGsdRGsdRGMGsdRGNIF (AA[Arg(Me2s)]G[Arg(Me2s)]G[Arg(Me2s)]GMG[Arg(Me2s)]GNIF) [peptide no. 77, SmD3 aa 108-122 with all arginines as sDMA]",number of anti-Sm sera recognizing the peptide,[1],three out of five
same,number of anti-Sm sera recognizing the peptide,[1]; listed as SEQ ID NO: 3,Three out of five
"KREAVAGRGRGRGRG [compound 10, SmD1 array peptide; text describes glycine and DMA repeats]",binding of anti-Sm antibodies (in words),"[1]; anti-SmD sera #36, #37, #31, #84, #Sm, peptide arrays",strong reactivity
"synthetic peptide corresponding to the C-terminal extension of SmD1: literature SmD1 aa 83-119 peptide (Riemekasten et al., 1998) used in an ELISA (VEPKVKSKKREAVAGRGRGRGRGRGRGRGRGRGGPRR; UniProt P62314 83-119, looked up, fragment)",effect on the pathogenic process of Lupus-prone mice,[6],accelerate the pathogenic process
